Assay [1] has as its system HeLa (human epithelial cervical cancer) cell line. Kind of assay: MTT cytotoxicity assay. Format: cell-based. The following applies: after 48 h of treatment, mean ± S.D. An excerpt:
(§1) HeLa (human epithelial cervical cancer, ATCC CCL-2), HepG2 (human epithelial liver cancer, ATCC HB-8065) and Vero (monkey epithelial kidney […], ATCC CCL-81) cell lines were used to examine the selected virtual hit compounds’ anti-cancer activity. All cell lines were generously provided by the late Prof. Dr. M.H. Qazi, University of Lahore, Lahore, Pakistan. The test compounds were purchased via MolPort and cisplatin from Pharmedic (Pvt) Ltd., Lahore, Pakistan. Cell culture media, fetal calf serum (FCS), MTT (3-[[…]]-2,5-diphenyltetrazolium bromide), DMSO, antibiotic/antimycotic and Supplementary Materials were purchased from Thermo Fisher Scientific, Inc, (Waltham, MA, USA).
(§2) Cells were harvested at 80% confluence by treating the medium-free monolayer with trypsin-EDTA. Cell counts were performed with a hemocytometer, and cell viability was determined with trypan blue. The cell suspension was adjusted to a final concentration of […] in DMEM (Dulbecco’s modified Eagle medium) with 10% FCS. Cells were dispensed to tissue culture grade 96-well plates, with each microwell receiving 100 µL, i.e., 7000 cells per microwell. The plate was incubated at 37 °C for 12 h in 5% CO2 incubator. Stock solutions (10 mM) of the test compounds and positive control were prepared in DMSO. Test concentrations were prepared by diluting the stocks with the growth media. Test compound solutions were diluted from 100 µL to a final well volume of 200 µL. MTT reagent was prepared in phosphate-buffered saline (PBS) in a concentration of 5 mg/mL. After 48 h, 25 µL of MTT reagent was added to each microwell, followed by incubation for 5 h. MTT is reduced by metabolically active cells to insoluble purple formazan crystals by mitochondrial enzymes. The reduction of MTT is primarily due to glycolytic activity within the cell, and is dependent upon the presence of NADH and NADPH. The entire contents of each microwell were carefully pipetted out without disturbing the cells on the well floor. In order to solubilize the formazan crystals, 100 µL of DMSO was dispensed to each well. The absorbance was measured with the help of a Bio Rad PR 4100 microplate reader at a wavelength of 570 nm. Serial dilutions of cisplatin were used as a positive control, while the negative controls contained only the reagent, but not any drug. Percentage viability was calculated and dose–response curves were plotted using the percentage viability against the drug/test compound concentration (µM). Results represent mean ±SD of six readings: three determinations of two independent experiments.
(§3) These four compounds were subsequently tested for their cytotoxic effect on different cell lines. Cell viability assays on cancer cell lines HeLa and HepG2 and non-cancerous Vero cell line were performed using the lead compounds (Z21, Z88, F34, AF3) with doses ranging from 50 to 400 µM. Cisplatin was used as a positive control at dose levels of 1 µM, 10 µM, and 20 µM. Dose–response curves of all four inhibitors against the three cell lines show the moderate sensitivity of all cell line toward these inhibitors (Figure 6).
(In general: Tetrazolium dyes change colour on reduction, which living cells bring about.)

For assay [2], the system named is Vero (monkey epithelial kidney) cell line. The experiment in a line: MTT cytotoxicity assay. Format: cell-based. Conditions: after 48 h of treatment, mean ± S.D.
Text: as §1, §2, §3

For assay [3], the system named is HepG2 (human epithelial liver cancer) cell line. Kind of assay: MTT cytotoxicity assay. Format: cell-based. The following applies: after 48 h of treatment, mean ± S.D.
Text: as §1, §2, §3

For assay [4], the system named is BCR-ABL, SRC, KIT, PDGFR, EPH, CSK. Conditions: FDA-approved kinase inhibitor, against tested cell lines, no reference given; cited from earlier work.
The subject of assay [5] is TIE2, PDGFR, RET, KIT, B-RAF. Conditions: FDA-approved kinase inhibitor, against tested cell lines, no reference given; cited from earlier work.
For the next assay, the target named is cannabinoid CB1 receptor. On the set-up: method as in PMID 17027269. Conditions: cited from earlier work.
In assay [6] the test system is BCR-ABL, KIT, LCK, EPHA3, 8, DDR1, 2. The following applies: FDA-approved kinase inhibitor, against tested cell lines, no reference given; cited from earlier work.
Assay [7] has as its system VEGF, RET, MET, NTRKB, TIE2, AXL. Conditions: FDA-approved kinase inhibitor, against tested cell lines, no reference given; cited from earlier work.
For another assay, the system named is PDGFR, VEGFR. Conditions: FDA-approved kinase inhibitor, against tested cell lines, no reference given; cited from earlier work.
Assay [8] deals with EGFR, VEGFR, RET, Tie-2, FGFR1. Conditions: FDA-approved kinase inhibitor, against tested cell lines, no reference given; cited from earlier work.

A word on the IC50: it is the concentration that inhibits the measured activity by half. `COc1ccc(C(=O)Oc2ccc3c(=O)c(Oc4ccc5ccccc5c4)coc3c2)cc1` [AF3]: the IC50 was 176 ± 2.12 µM in assay [1], 209 ± 2.43 µM in assay [2] and 188 ± 2.31 µM in assay [3].

Regarding `Cc1nc(Nc2ncc(C(=O)Nc3c(C)cccc3Cl)s2)cc(N2CCN(CCO)CC2)n1` [dasatinib], the IC50 in [4] was less than 0.01 µM.

As for `CNC(=O)c1cc(Oc2ccc(NC(=O)Nc3ccc(Cl)c(C(F)(F)F)c3)c(F)c2)ccn1` [regorafenib], in [5], the half-maximal inhibitory concentration (IC50) is […].

Take `Cc1ccc(NC(=O)Cn2cnc3sc(-c4nc(-c5ccccc5)no4)c(C)c3c2=O)cc1Cl` [Compound F34]: the results for the concentration for half-maximal inhibition (IC50) in [1], in assay [2] and in assay [3] were 145 ± 2.06 µM, 131 ± 2.3 µM and 175.5 ± 1.66 µM, respectively.

Take `O=S(=O)(c1cccc(NCc2cccc3ccccc23)c1)N1CCOCC1` [Compound Z21]: the values for the IC50 in [1], in assay [2] and in [3] were 231 ± 2.35 µM, 250.2 ± 2.34 µM and 246 ± 1.93 µM, respectively.

As to `N.N.[Cl][Pt][Cl]` [Cisplatin, cisplatin, reference compound], the IC50 in [1] turned out to be 6.02 ± 1.59 µM; in [2] it was 7.99 ± 2.38 µM; in assay [3] it was 6.41 ± 1.54 µM.

In the case of `O=C(Nc1ccc(Cl)c(S(=O)(=O)N2CCOCC2)c1)c1cccc2ccccc12` [N-(4-chloro-3-(morpholinosulfonyl)phenyl)-1-naphthamide], the 50% inhibitory concentration (IC50) result at cannabinoid CB1 receptor was “nanomolar range”.

On to `Cc1cn(-c2cc(NC(=O)c3ccc(C)c(Nc4nccc(-c5cccnc5)n4)c3)cc(C(F)(F)F)c2)cn1` [nilotinib], for which the concentration for half-maximal inhibition (IC50) in [6] is […].

For the molecule `COc1cc2nccc(Oc3ccc(NC(=O)C4(C(=O)Nc5ccc(F)cc5)CC4)cc3)c2cc1OC` [cabozantinib], the half-maximal inhibitory concentration (IC50) in [7] is less than 0.015 µM.

For the molecule `Cc1ccc(Nc2nccc(N(C)c3ccc4c(C)n(C)nc4c3)n2)cc1S(N)(=O)=O` [pazopanib], the IC50 with PDGFR, VEGFR was […].

As for `O=C(CCn1[nH]c(=O)c2ccccc2c1=O)N1CCCC1c1ccc2c(c1)OCCO2` (stereo not shown) [Compound Z88], the half-inhibitory concentration (IC50) turned out to be 218.7 ± 2.04 µM in assay [1], 204.8 ± 1.78 µM in assay [2] and 222.1 ± 1.68 µM in assay [3].

As for `COc1cc2c(Nc3ccc(Br)cc3F)ncnc2cc1OCC1CCN(C)CC1` [vandetanib], the 50% inhibitory concentration (IC50) in assay [8] is […].

Values taken from publication PMC6523505, “Inhibition of Oncogenic Kinases: An In Vitro Validated Computational Approach Identified Potential Multi-Target Anticancer Compounds” (Biomolecules, 2019).
